Test results as given in patent EP1816136A1, “GPR7-SELECTIVE LIGAND AND USE THEREOF” (BANYU PHARMACEUTICAL CO., LTD., priority 2004, dated 2006).
Non-standard residues stand in square brackets, D forms with d. Residues, ends and D or L forms follow the SMILES beside them. Ava = NCCCCC(=O)O

Tests used:
GPR7 [1] = target: T1, GPR7 (Homo sapiens, UniProt P48145); assay: Measurement of activation capacity on GPR7 (CRE-BLA beta-lactamase reporter assay); type: cell-based; settings: Table 1; HEK293/CRE-BLA cells expressing GPR7; forskolin 1 µM; 3 hours at 37°C
T1 construct: expressed in transfected cells; host or cells: HEK293/CRE-BLA cells (AURORA), expression vector pIRES-hygro (Clontech)
T1 sequence (P48145 1-328): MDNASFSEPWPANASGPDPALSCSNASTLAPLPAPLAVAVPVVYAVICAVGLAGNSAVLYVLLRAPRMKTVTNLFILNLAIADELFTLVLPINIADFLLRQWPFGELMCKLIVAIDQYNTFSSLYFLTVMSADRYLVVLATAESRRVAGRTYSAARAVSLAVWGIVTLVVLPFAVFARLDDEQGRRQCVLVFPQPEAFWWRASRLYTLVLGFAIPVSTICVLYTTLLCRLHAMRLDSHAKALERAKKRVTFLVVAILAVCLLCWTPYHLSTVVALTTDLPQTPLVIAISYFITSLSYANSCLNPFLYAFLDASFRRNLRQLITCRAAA
Description: (§1) A cDNA sequence coding for human GPR7 or GPR8 [see Genomics, vol. 28, p. 84 (1995)] was amplified by the PCR method, and cloned using the expression vector pIRES-hygro (Clontech). The resulting expression vector was transfected into HEK293/CRE-BLA cells (AURORA) using the cationic lipid method [see Proceedings of the National Academy of Sciences of the United States of America, vol. 84, p. 7413 (1987)] to obtain GPR7 or GPR8 expression cells.
(§2) In accordance with the method of Zlakarmik (see Science, 1998, vol. 279, p. 84), the activity of various synthetic peptides on GPR7 or GPR8 was measured. HEK293/CRE-BLA cells which expressed GPR7 or GPR8 (prepared in (2) of Test Example 1) were washed twice with PBS(-) buffer solution (GIBCO-BRL), and then Cell-dissociation buffer (GIBCO-BRL) was added. The system was kept at 37°C for 3 minutes in a CO2 incubator, and a culture flask was tapped to liberate the cells from the flask. After the cells were harvested by centrifugation, the cells were suspended in an Opti-MEM culture medium (GIBCO-BRL) containing 0.1 % BSA (Sigma) to count the cells and prepare a cell suspension containing 8×10^5 cells/mL. To 2 µL of a DMSO solution containing each test compound with a concentration of 50 times an end concentration, 50 µL of the 0.1% BSA-containing Opti-MEM medium incorporating forskolin (Sigma) so as to have an end concentration of 1 µM was added to form a reaction solution. To this reaction solution, 50 µL of the above cell suspension was added to initiate the reaction, and the system was incubated for 3 hours at 37°C in a CO2 incubator.
(§3) Then, using a BLA assay kit (AURORA), a coloring matter-introduced buffer solution incorporating 12 µL of Solution A [1 mM CCF2-AM/anhydrous DMSO solution], 120 µL of Solution B [100 mg/mL Pluronic 127, 0.1% acetic acid/DMSO solution], and 2 mL of Solution C [24% (w/w) PEG-400, 18% TR40/H2O] was prepared. This coloring matter-introduced buffer solution (20 µL) was added to the above-mentioned cell reaction mixture to introduce a β-lactamase substrate (CCF2-AM) into the cells. After the system was allowed to stand for 1 hour at room temperature, the fluorescence intensities of the sample at an excitation wavelength of 409 nm, at a fluorescence wavelength of 460 nm (a β-lactamase hydrolyzate of CCF), and at 530 nm (CCF) were measured. With β-lactamase activity (fluorescence intensity at 460 nm/fluorescence intensity at 530 nm) as an indicator, the activity of each of various peptides on GPR7 or GPR8 was measured, and the 50% effective concentration (EC50) of the test compound was calculated.

GPR7 [2] = target: T1, GPR7; assay: Binding inhibition test with [125I]-[Phe2]-hNPW(1-23), GPR7 membrane preparation; settings: Table 1, membrane preparation of HEK293/CRE-BLA cells expressing GPR7, 1 hour at room temperature
Protocol: (§4) One nmol of [Phe2]-hNPW(1-23) (prepared in Synthesis Example 19) was dissolved in 5 µL of anhydrous DMSO, and the solution was mixed with 0.1M nickel chloride. Then, the mixture was mixed with 10 µL of a 0.00 1 % aqueous solution of hydrogen peroxide, 10 µL of an enzyme solution (lactoperoxidase (Sigma) adjusted to 10 µg/mL with a 0.1M HEPES buffer solution), and 37 Mbq/10 µL of Iodine-125 (Amersham), whereafter the resulting mixture was reacted for 60 minutes at room temperature. The reaction was terminated with the addition of 10 µL of 1% sodium azide, and then a radiolabeled peptide fraction was collected by a PD-10 gel filtration column (Amersham) to obtain [^125I]-[Phe2]-hNPW(1-23).
as §1
(§5) A membrane preparation prepared from the cells expressing GPR7 or GPR8 was incubated for 1 hour at room temperature in an assay buffer solution (25 mM Tris buffer solution, 150 mM NaCl, pH 7.4) together with a test compound and 28,000 cpm of [^125I]-[Phe2]-hNPW(1-23). Then, the system was filtered through the glass filter GF/C. After washing with 25 mM Tris buffer solution (pH 7.4), radioactivity on the glass filter was measured. Nonspecific binding was measured in the presence of 1 µM hNPW (prepared in Synthesis Example 1), and the 50% inhibition concentration (IC50 value) of the test compound against [Phe2]-hNPW(1-23) specific binding was calculated [see Molecular Pharmacology, vol. 55, 1101 (1999)].

GPR8 [3] = target: T2, GPR8 (Homo sapiens, UniProt P48146); assay: Measurement of activation capacity on GPR8 (CRE-BLA beta-lactamase reporter assay); type: cell-based; settings: Table 1; HEK293/CRE-BLA cells expressing GPR8; forskolin 1 µM; 3 hours at 37°C; read-out: GPR8 (nM) EC 50
T2 construct: expressed in transfected cells; host or cells: HEK293/CRE-BLA cells (AURORA), expression vector pIRES-hygro (Clontech)
T2 sequence (P48146 whole entry): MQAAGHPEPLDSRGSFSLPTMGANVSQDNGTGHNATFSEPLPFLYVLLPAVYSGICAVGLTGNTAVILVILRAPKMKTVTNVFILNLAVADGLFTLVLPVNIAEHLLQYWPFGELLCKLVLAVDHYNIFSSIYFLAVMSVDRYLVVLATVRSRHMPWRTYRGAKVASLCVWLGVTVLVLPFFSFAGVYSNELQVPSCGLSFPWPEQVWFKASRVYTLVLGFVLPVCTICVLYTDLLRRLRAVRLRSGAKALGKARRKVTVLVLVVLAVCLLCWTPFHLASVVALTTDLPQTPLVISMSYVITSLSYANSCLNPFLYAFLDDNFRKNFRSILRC
Description: as §1, §2, §3

GPR8 [4] = target: T2, GPR8; assay: Binding inhibition test with [125I]-[Phe2]-hNPW(1-23), GPR8 membrane preparation; settings: Table 1, membrane preparation of HEK293/CRE-BLA cells expressing GPR8, 1 hour at room temperature
Protocol: as §4, §1, §5

Structure (SMILES) | EC50 (GPR7 [1]) | IC50 (GPR7 [2]) | EC50 (GPR8 [3]) | IC50 (GPR8 [4])
CC(C)C[C@H](NC(=O)CNC(=O)[C@H](CO)NC(=O)[C@H](CC(C)C)NC(=O)[C@H](CC(C)C)NC(=O)CNC(=O)[C@H](C)NC(=O)[C@H](C)NC(=O)[C@H](CCCNC(=N)N)NC(=O)CNC(=O)CCCCNC(=O)[C@H](CCCCN)NC(=O)[C@H](Cc1ccc(O)cc1)NC(=O)[C@@H](N)Cc1c[nH]c2ccccc12)C(N)=O [compound 5] (H-WYK[Ava]GRAAGLLSGL-NH2) | 1.7 nM | 0.55 nM | 280 nM | 310 nM
CC(C)C[C@H](NC(=O)CNC(=O)[C@H](CO)NC(=O)[C@H](CC(C)C)NC(=O)[C@H](CC(C)C)NC(=O)CNC(=O)[C@H](C)NC(=O)[C@H](C)NC(=O)[C@H](CCCNC(=N)N)NC(=O)CNC(=O)CCCCNC(=O)CCCCNC(=O)[C@H](CCCCN)NC(=O)[C@H](Cc1ccc(O)cc1)NC(=O)[C@@H](N)Cc1c[nH]c2ccccc12)C(N)=O [compound 6] (H-WYK[Ava][Ava]GRAAGLLSGL-NH2) | 2.2 nM | 0.47 nM | 94 nM | 300 nM
CC(C)C[C@H](NC(=O)CNC(=O)[C@H](CO)NC(=O)[C@H](CC(C)C)NC(=O)[C@H](CC(C)C)NC(=O)CNC(=O)[C@H](C)NC(=O)[C@H](C)NC(=O)[C@H](CCCNC(=N)N)NC(=O)CNC(=O)CCCCNC(=O)CCCCNC(=O)CCCCNC(=O)[C@H](CCCCN)NC(=O)[C@H](Cc1ccc(O)cc1)NC(=O)[C@@H](N)Cc1c[nH]c2ccccc12)C(N)=O [compound 7] (H-WYK[Ava][Ava][Ava]GRAAGLLSGL-NH2) | 0.48 nM | 0.09 nM | 77 nM | 260 nM
CC(C)C[C@H](NC(=O)CNC(=O)[C@H](CO)NC(=O)[C@H](CC(C)C)NC(=O)[C@H](CC(C)C)NC(=O)CNC(=O)[C@H](C)NC(=O)[C@H](C)NC(=O)[C@H](CCCNC(=N)N)NC(=O)CNC(=O)CCCCNC(=O)CCCCNC(=O)CCCCNC(=O)CCCCNC(=O)[C@H](CCCCN)NC(=O)[C@H](Cc1ccc(O)cc1)NC(=O)[C@@H](N)Cc1c[nH]c2ccccc12)C(N)=O [compound 8] (H-WYK[Ava][Ava][Ava][Ava]GRAAGLLSGL-NH2) | 1.2 nM | 1.1 nM | 51 nM | 360 nM
